Measurements from publication PMC11349956 (EJNMMI Radiopharmacy and Chemistry, 2024).
Structures can show the parent of a compound that is named as a salt.

How the values were obtained:
[1] = rat striatum, 18F-LBT-999, ref Sérrière et al. [2014]; cited from earlier work
[2] = target: DAT (Rattus norvegicus, UniProt P23977); assay type: in vivo; conditions: GBR12909 12.5 mg/kg i.p. 15 min before LBT-999 0.02 mg/kg i.v.
DAT, sequence (P23977 whole entry): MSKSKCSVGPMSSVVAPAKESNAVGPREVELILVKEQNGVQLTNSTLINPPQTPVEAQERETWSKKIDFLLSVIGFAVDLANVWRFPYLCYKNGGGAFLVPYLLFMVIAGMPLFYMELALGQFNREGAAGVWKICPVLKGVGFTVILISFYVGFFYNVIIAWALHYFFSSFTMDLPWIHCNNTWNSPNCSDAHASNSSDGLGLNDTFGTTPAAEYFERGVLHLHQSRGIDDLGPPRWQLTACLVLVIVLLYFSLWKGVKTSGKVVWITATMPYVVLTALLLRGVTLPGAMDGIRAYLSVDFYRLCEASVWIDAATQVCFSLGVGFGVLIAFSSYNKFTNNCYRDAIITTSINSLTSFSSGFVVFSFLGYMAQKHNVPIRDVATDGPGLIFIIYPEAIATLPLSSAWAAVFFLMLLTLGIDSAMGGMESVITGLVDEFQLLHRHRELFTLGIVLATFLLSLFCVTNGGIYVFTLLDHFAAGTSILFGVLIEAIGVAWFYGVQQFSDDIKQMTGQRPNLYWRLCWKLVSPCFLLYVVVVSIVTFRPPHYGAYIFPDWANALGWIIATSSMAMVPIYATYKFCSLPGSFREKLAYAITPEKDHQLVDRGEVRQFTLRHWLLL

Row | Compound | average percentage of injected doses in the striatum derived from PET studies [1] [%] | effect on brain binding of LBT-999 [2]
1 | COC(=O)[C@H]1[C@@H](c2ccc(C)cc2)C[C@@H]2CC[C@H]1N2C/C=C/C[18F] [18F-LBT-999] | 2.17 ± 0.42 | –
2 | Fc1ccc(C(OCCN2CCN(CCCc3ccccc3)CC2)c2ccc(F)cc2)cc1 [GBR 12909, 1-(2-bis(4-fluorophenyl)methoxy)ethyl)-4-(3-phenylpropyl)piperazine hydrochloride] | – | prevented any binding of LBT-999
